What all share (experiment): NCI anticancer screen, dose series, 48 h
The subject of experiment [1] is RXF-631 renal.
In experiment [2] the test system is CAKI-1 renal.
The test system of experiment [3] is HOP-62 NSCLC.
Experiment [4] has as its system COLO 205 colon.
The test system of experiment [5] is NCI-H522 lung.
For experiment [6], the system named is K-562 leukemia.
In experiment [7] the test system is SNB-19 CNS.
For experiment [8], the system named is KM20L2 colon.
Experiment [9] relates to T-47D breast.
In experiment [10] the test system is MDA-MB-435.

We go through 18 compounds from PubChem BioAssay (NCI).

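Cells were grown in 96-well plates and exposed to each compound for 48 hours at five concentrations; endpoints were interpolated linearly between bracketing concentrations, or set to the highest concentration if not reached. Abbreviation: GI50, concentration required for 50% inhibition of growth. TGI marks complete inhibition of growth.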

For `CCc1cccc(CC)c1NC1=CC(=O)C(=O)c2ccccc21`, the TGI in experiment [1] is over 100 µM; in [2], 44.3 µM; in [3], 40.3 µM; in [4] it was over 100 µM; in experiment [5], 28.3 µM; in experiment [6] it was over 100 µM. For the same compound, the TGI was found to be 63.3 µM in [7] and 48.9 µM in experiment [8].

`CC(=O)NNc1nc(C)c(C(=O)NNC(=O)C(=O)Nc2ccc(C)cc2[N+](=O)[O-])s1`: the TGI in experiment [1] is over 100 µM; in [2], over 100 µM; in experiment [3], over 100 µM; in experiment [4] it was over 100 µM; in experiment [5] it was 78 µM; in experiment [6], over 100 µM. The TGI in [7] and in experiment [8] was over 100 µM throughout.

Take `BrC(/C=N/Nc1nnc(-c2ccccc2)c(-c2ccccc2)n1)C(Br)c1ccccc1` (stereo not given): the TGI in experiment [1] was over 100 µM; in [2] it was over 100 µM; in experiment [3] it was 92.2 µM; in experiment [4], over 100 µM; in experiment [5] it was 54.1 µM; in experiment [6] it was over 100 µM. The TGI in experiment [7] and in experiment [8] was over 100 µM each time.

`Cc1c(Cl)ccc2[s+]snc12`: the TGI is over 100 µM in experiment [1]; over 100 µM in [2]; over 100 µM in [3]; over 100 µM in experiment [4]; 41.5 µM in experiment [5]; 73.7 µM in experiment [6]. Further, the TGI in experiment [7] and in experiment [8] was over 100 µM in each case.

As for `C#CC[C@]12CC(=O)CC[C@H]1CC1(C2)OCCO1`, the TGI in experiment [1], in experiment [2], in [3], in [4], in experiment [5] and in experiment [6] was over 100 µM in each case. The TGI in experiment [7] and in [8] was over 100 µM each time.

On to `O=P(c1ccccc1)(c1ccccc1)C1CC=C2CCCCCC2C1` (stereo not given), for which the TGI in experiment [1] was determined as 85.4 µM; in [2] it was 69.5 µM; in experiment [4], 56.4 µM; in experiment [5] it was 41 µM; in experiment [6] it was 76.9 µM; in [7], 81.6 µM. The TGI in experiment [8] was over 10 µM.

Take `CC(=O)[O-].O=C([CH-]C(=O)c1ccccc1)c1ccccc1.O=C([CH-]C(=O)c1ccccc1)c1ccccc1.[Dy+3]`: the GI50 is 17 µM in experiment [2]; 6.91 µM in experiment [3]; 15.3 µM in experiment [4]; 10.4 µM in [5]; 3.55 µM in experiment [6]; 14.8 µM in experiment [7]. The GI50 in experiment [8] was 12.9 µM. Further, the TGI in [2] stood at 50.3 µM; in experiment [3], 31.9 µM; in experiment [4] it was 34.1 µM; in [5], 36.9 µM; in [6], 17.8 µM; in experiment [7], 70.3 µM. For the same compound, the TGI in [8] came to 44.7 µM.

For `N#CC1(C2CC(=O)N(c3ccccc3)C2=O)CCCCC1=O` (stereo not given), the TGI in experiment [1], in experiment [4], in experiment [6] and in [7] was over 100 µM in each case.

As for `N#Cc1cccc(C2SCc3nc4ccccc4n32)c1` (stereo not given), the TGI in [1], in experiment [2], in [3], in experiment [4], in [5] and in [6] was over 100 µM throughout. Further, the TGI in experiment [7] and in [8] was over 100 µM in each case.

As for `CCC[CH2][Sn]1([CH2]CCC)[O]C(=O)c2cccnc2[S]1`, the GI50 in experiment [2] is 1.76 µM; in experiment [3] it was 28.9 µM; in experiment [4], 3.34 µM; in experiment [5], 0.348 µM; in experiment [6] it was 1.65 µM; in experiment [7], 6.88 µM. The GI50 in experiment [8] is 7.72 µM. In addition, the TGI in experiment [2] was 8.05 µM; in [3] it was 43.7 µM; in experiment [4], 9.33 µM; in [5], 1.57 µM; in [6] it was 5.48 µM; in experiment [7] it was 19.5 µM. Further, in [8], the TGI amounted to 21 µM.

As to `O=C(c1ccccc1)N1CCc2c([nH]c3ccccc23)C1`, the TGI in [1] is over 100 µM; in experiment [2] it was 86.4 µM; in [3], over 100 µM; in experiment [4] it was 36.7 µM; in [5], 64.8 µM; in experiment [6], over 100 µM. For the same compound, the TGI in experiment [7] and in experiment [8] was over 100 µM in each case.

For the compound `C/C(=N\NC(N)=S)c1ccc(Oc2ccccc2)cc1`, the TGI in experiment [1] is 43.7 µM; in experiment [3] it was 46.6 µM; in experiment [4], 25.7 µM; in [6], 21.5 µM; in [7], 84.5 µM; in experiment [8] it was 26.5 µM.

As for `CS(=O)c1cc(=O)c2ccccc2s1` (stereo not given), the TGI in [9] was 6.52 µM; in experiment [2], 6.2 µM; in experiment [3] it was 44.2 µM; in [4] it was 4.65 µM; in experiment [10] it was 19 µM; in experiment [5], 3.07 µM. Moreover, the TGI in experiment [6] came to 7.57 µM; in [7], 32.3 µM; in [8], 13.4 µM.

For the compound `O=C(CC1(O)C(=O)Nc2ccc(Br)cc21)c1cccc([N+](=O)[O-])c1` (stereo not given), the TGI in experiment [1] is over 100 µM; in experiment [2], over 100 µM; in experiment [3], over 100 µM; in [4], over 100 µM; in experiment [5], 67.2 µM; in experiment [6], over 100 µM. In addition, the TGI in experiment [7] and in [8] was over 100 µM throughout.

Regarding `O=C1N(c2ccccc2)C2(O)C(=O)c3ccccc3C2(O)N1c1ccccc1` (stereo not given), the TGI in [2], in [3], in [4], in experiment [5], in [6] and in [7] was over 100 µM in each case. For the same compound, the TGI in [8] is over 100 µM.

For `CCOc1ccc(/C=C/C(=O)c2sc(NNC(C)=O)nc2C)cc1`, the TGI in experiment [2], in [3], in experiment [4], in experiment [5], in experiment [6] and in experiment [7] was over 100 µM each time. In experiment [8], this compound returned a TGI of over 100 µM.

Turning to `CC1(C)OC2OC(/C=C/[N+](=O)[O-])C3OC(C)(C)OC3C2O1` (stereo not given), the TGI in experiment [2] amounted to 14.3 µM; in experiment [3] it was 38.3 µM; in [4], 14.5 µM; in experiment [5], 3.36 µM; in experiment [6] it was 27.5 µM; in [7] it was 33.5 µM. Further, in experiment [8], the TGI was 39.6 µM.

Consider `C=CC(C)(C)[C@@]12CC3C(=O)N[C@@H](Cc4ccccc4)C(=O)N3[C@@H]1N(C(C)=O)c1ccccc12` (stereo not given in full), for which the TGI in [1], in experiment [3], in experiment [4], in experiment [6], in [7] and in experiment [8] was over 100 µM in each case.
